Measured values as given in patent publication US9445594B2, “Molecules having certain pesticidal utilities, intermediates, compositions, and processes, related thereto” (priority 2014, dated 2016).

Tests used:
Format in all cases: in vivo
[1] = tested on: Beet Armyworm (Spodoptera exigua, LAPHEG) ("BAW"); test: Bioassays on BAW, 128-well diet tray assay; conditions: 168 h, second instar larvae, 50 μg/cm^2 on artificial diet, 25° C., five to seven days, average of eight wells, read-out: BAW % Control (or Mortality) rating
Method: (§1) Certain molecules disclosed in this document were tested against BAW, CEW, and CL using procedures described in the following examples. In the reporting of the results, the “BAW, CEW, & CL Rating Table” was used (See Table Section).
Bioassays on BAW were conducted using a 128-well diet tray assay. one to five second instar BAW larvae were placed in each well (3 mL) of the diet tray that had been previously filled with 1 mL of artificial diet to which 50 μg/cm^2 of the test compound (dissolved in 50 μL of 90:10 acetone-water mixture) had been applied (to each of eight wells) and then allowed to dry. Trays were covered with a clear self-adhesive cover and held at 25° C., 14:10 light-dark for five to seven days. Percent mortality was recorded for the larvae in each well; activity in the eight wells was then averaged. The results are indicated in the table entitled “Table ABC: Biological Results” (See Table Section).

[2] = tested on: Cabbage Looper (Trichoplusia ni, TRIPNI) ("CL"); test: Bioassays on CL, 128-well diet tray assay; conditions: 168 h, second instar larvae, 50 μg/cm^2 on artificial diet, 25° C., five to seven days, average of eight wells, read-out: CL % Control (or Mortality) rating
Method: as §1
Bioassays on CL were conducted using a 128-well diet tray assay. one to five second instar CL larvae were placed in each well (3 mL) of the diet tray that had been previously filled with 1 mL of artificial diet to which 50 μg/cm^2 of the test compound (dissolved in 50 μL of 90:10 acetone-water mixture) had been applied (to each of eight wells) and then allowed to dry. Trays were covered with a clear self-adhesive cover and held at 25° C., 14:10 light-dark for five to seven days. Percent mortality was recorded for the larvae in each well; activity in the eight wells was then averaged. The results are indicated in the table entitled “Table ABC: Biological Results” (See Table Section).

[3] = tested on: Yellow Fever Mosquito (Aedes aegypti, AEDSAE) ("YFM"); test: Bioassays on YFM, 96-well plate larval assay; conditions: about 1 day-old larvae, from 4000 ppm DMSO master plate diluted, room temperature, scored after 3 days
Method: Certain molecules disclosed in this document were tested against YFM using procedures described in the following paragraph. In the reporting of the results, the “YFM Rating Table” was used (See Table Section).
Master plates containing 400 μg of a molecule dissolved in 100 μL of dimethyl sulfoxide (DMSO) (equivalent to a 4000 ppm solution) are used. A master plate of assembled molecules contains 15 μL per well. To this plate, 135 μL of a 90:10 water:acetone mixture is added to each well. A robot (Biomek® NXP Laboratory Automation Workstation) is programmed to dispense 15 μL aspirations from the master plate into an empty 96-well shallow plate (“daughter” plate). There are 6 reps (“daughter” plates) created per master. The created daughter plates are then immediately infested with YFM larvae.
The day before plates are to be treated, mosquito eggs are placed in Millipore water containing liver powder to begin hatching (4 g. into 400 mL). After the daughter plates are created using the robot, they are infested with 220 μL of the liver powder/larval mosquito mixture (about 1 day-old larvae). After plates are infested with mosquito larvae, a non-evaporative lid is used to cover the plate to reduce drying. Plates are held at room temperature for 3 days prior to grading. After 3 days, each well is observed and scored based on mortality.

SMILES	mortality at 50 µg/cm2 [1] [%]	mortality at 50 µg/cm2 [2] [%]	YFM % Control (or Mortality) rating [3]
O=C(Nc1ccc(-c2ncn(-c3ccc(OC(F)(F)F)cc3)n2)cc1)Nc1ccccc1C(F)(F)F [F64, 1-(4-(1-(4-(trifluoromethoxy)phenyl)-1H-1,2,4-triazol-3-yl)phenyl)-3-(2-(trifluoromethyl)phenyl)urea]	50 to 100	50 to 100	B (More than 0 - Less than 80)
FC(F)(F)Oc1ccc(-n2cnc(-c3ccc(NC(=S)Nc4ccccc4-c4nnco4)cc3)n2)cc1 [F44, 1-(2-(1,3,4-Oxadiazol-2-yl)phenyl)-3-(4-(1-(4-(trifluoromethoxy)phenyl)-1H-1,2,4-triazol-3-yl)phenyl)thiourea]	0	0	D (No activity noticed in this bioassay)
C=C(C)c1ccccc1NC(=O)Nc1ccc(-c2ncn(-c3ccc(OC(F)(F)F)cc3)n2)cc1 [F61, 1-(2-(Prop-1-en-2-yl)phenyl)-3-(4-(1-(4-(trifluoromethoxy)phenyl)-1H-1,2,4-triazol-3-yl)phenyl)urea]	50 to 100	50 to 100	D (No activity noticed in this bioassay)
O=C(Nc1ccc(-c2ncn(-c3ccc(OC(F)(F)F)cc3)n2)cc1)Nc1ccccc1OC(F)(F)F [F26, 1-(2-(Trifluoromethoxy)phenyl)-3-(4-(1-(4-(trifluoromethoxy)phenyl)-1H-1,2,4-triazol-3-yl)phenyl)urea]	50 to 100	50 to 100	D (No activity noticed in this bioassay)
CCc1ccccc1NC(=O)NCCCc1ccc(-c2ncn(-c3ccc(OC(F)(F)F)cc3)n2)cc1 [F86, 1-(2-Ethylphenyl)-3-(3-(4-(1-(4-(trifluoromethoxy)phenyl)-1H-1,2,4-triazol-3-yl)phenyl)propyl)urea]	50 to 100	50 to 100	A (80-100)
COc1ccccc1NC(=O)NCCCCc1ccc(-c2ncn(-c3ccc(OC(F)(F)F)cc3)n2)cc1 [F95, 1-(2-Methoxyphenyl)-3-(4-(4-(1-(4-(trifluoromethoxy)phenyl)-1H-1,2,4-triazol-3-yl)phenyl)butyl)urea]	0	50 to 100	D (No activity noticed in this bioassay)
O=C(Nc1ccc(-c2ncn(-c3ccc(OC(F)(F)F)cc3)n2)cc1)Nc1ccccc1-c1cccnc1 [F62, 1-(2-(Pyridin-3-yl)phenyl)-3-(4-(1-(4-(trifluoromethoxy)phenyl)-1H-1,2,4-triazol-3-yl)phenyl)urea]	50 to 100	50 to 100	B (More than 0 - Less than 80)
CC(C)c1ccccc1NC(=O)NCCCc1ccc(-c2ncn(-c3ccc(OC(F)(F)F)cc3)n2)cc1 [F78, 1-(2-Isopropylphenyl)-3-(3-(4-(1-(4-(trifluoromethoxy)phenyl)-1H-1,2,4-triazol-3-yl)phenyl)propyl)urea]	50 to 100	50 to 100	A (80-100)
FC(F)(F)Oc1ccc(-n2cnc(-c3ccc(NC(=S)Nc4ncccc4-c4ccccc4)cc3)n2)cc1 [F50, 1-(3-Phenylpyridin-2-yl)-3-(4-(1-(4-(trifluoromethoxy)phenyl)-1H-1,2,4-triazol-3-yl)phenyl)thiourea]	0	0	D (No activity noticed in this bioassay)
Cc1ccccc1NC(=O)NCCCc1ccc(-c2ncn(-c3ccc(OC(F)(F)F)cc3)n2)cc1 [F77, 1-(o-tolyl)-3-(3-(4-(1-(4-(trifluoromethoxy)phenyl)-1H-1,2,4-triazol-3-yl)phenyl)propyl)urea]	50 to 100	50 to 100	A (80-100)
O=C(Nc1ccc(-c2ncn(-c3ccc(OC(F)(F)F)cc3)n2)cc1)Nc1ccccc1C1CC1C1CC1 (stereo not drawn) [F49, 1-(2-([1,1′-Bi(cyclopropan)]-2-yl)phenyl)-3-(4-(1-(4-(trifluoromethoxy)phenyl)-1H-1,2,4-triazol-3-yl)phenyl)urea]	0 to 50	50 to 100	D (No activity noticed in this bioassay)
O=C(Nc1ccc(-c2ncn(-c3ccc(OC(F)(F)C(F)(F)F)cc3)n2)cc1)Nc1ccccc1OC(F)(F)F [F1, 1-(4-(1-(4-(Perfluoroethoxy)phenyl)-1H-1,2,4-triazol-3-yl)phenyl)-3-(2-(trifluoromethoxy)phenyl)urea]	0	50 to 100	D (No activity noticed in this bioassay)
COc1cccc(NC(=O)NCCCc2ccc(-c3ncn(-c4ccc(OC(F)(F)F)cc4)n3)cc2)c1 [F80, 1-(3-Methoxyphenyl)-3-(3-(4-(1-(4-(trifluoromethoxy)phenyl)-1H-1,2,4-triazol-3-yl)phenyl)propyl)urea]	50 to 100	50 to 100	A (80-100)
COc1ccc(NC(=O)NCc2ccc(-c3ncn(-c4ccc(OC(F)(F)F)cc4)n3)cc2)cc1 [F109, 1-(4-Methoxyphenyl)-3-(4-(1-(4-(trifluoromethoxy)phenyl)-1H-1,2,4-triazol-3-yl)benzyl)urea]	0	0	D (No activity noticed in this bioassay)
O=C(NCc1ccc(-c2ncn(-c3ccc(OC(F)(F)F)cc3)n2)cc1)Nc1ccc(Cl)cc1 [F105, 1-(4-Chlorophenyl)-3-(4-(1-(4-(trifluoromethoxy)phenyl)-1H-1,2,4-triazol-3-yl)benzyl)urea]	50 to 100	50 to 100	B (More than 0 - Less than 80)
O=C(NCc1ccc(-c2ncn(-c3ccc(OC(F)(F)F)cc3)n2)cc1)Nc1ccccc1Cl [F104, 1-(2-Chlorophenyl)-3-(4-(1-(4-(trifluoromethoxy)phenyl)-1H-1,2,4-triazol-3-yl)benzyl)urea]	50 to 100	0 to 50	B (More than 0 - Less than 80)
CCOc1cccc(NC(=O)Nc2ccc(-c3ncn(-c4ccc(OC(F)(F)F)cc4)n3)cc2)c1 [F39, 1-(3-ethoxyphenyl)-3-(4-(1-(4-(trifluoromethoxy)phenyl)-1H-1,2,4-triazol-3-yl)phenyl)urea]	0	50 to 100	D (No activity noticed in this bioassay)
COc1cccc(NC(=O)NCc2ccc(-c3ncn(-c4ccc(OC(F)(F)F)cc4)n3)cc2)c1 [F107, 1-(3-Methoxyphenyl)-3-(4-(1-(4-(trifluoromethoxy)phenyl)-1H-1,2,4-triazol-3-yl)benzyl)urea]	0	0	B (More than 0 - Less than 80)
O=C(Nc1ccc(-c2ncn(-c3ccc(OC(F)(F)F)cc3)n2)cc1)Nc1ccccc1-c1cc(F)c(F)c(F)c1 [F9, 1-(3′,4′,5′-Trifluoro-[1,1′-biphenyl]-2-yl)-3-(4-(1-(4-(trifluoromethoxy)phenyl)-1H-1,2,4-triazol-3-yl)phenyl)urea]	50 to 100	50 to 100	D (No activity noticed in this bioassay)
COc1ccccc1NC(=O)NCc1ccc(-c2ncn(-c3ccc(OC(F)(F)F)cc3)n2)cc1 [F106, 1-(2-Methoxyphenyl)-3-(4-(1-(4-(trifluoromethoxy)phenyl)-1H-1,2,4-triazol-3-yl)benzyl)urea]	0	0	D (No activity noticed in this bioassay)
